# BindingDB's records for patent US10562890 (University of Virginia Patent Foundation, 2020)
# Target: T1, Core-binding factor subunit beta (Homo sapiens, UniProt Q13951)
# T1 sequence (Q13951 whole entry): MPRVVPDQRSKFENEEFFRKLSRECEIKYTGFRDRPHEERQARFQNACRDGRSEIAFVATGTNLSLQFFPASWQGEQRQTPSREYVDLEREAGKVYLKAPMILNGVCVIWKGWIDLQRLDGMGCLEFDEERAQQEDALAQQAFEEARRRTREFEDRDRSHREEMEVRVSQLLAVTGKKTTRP
# Test: Fluorescence Resonance Energy Transfer (FRET) Assay
# Excerpt: FRET assay can be used to effectively monitor the inhibition of CBF binding to the Runt domain of RUNX proteins (as well as for CBFβ-SMMHC binding to the Runt domain of RUNX proteins). For the assay, the green fluorescent protein derivative Cerulean is fused to the N-terminus of the Runt domain and the green fluorescent protein derivative Venus to the N-terminus of CBFβ.
row,IC50,SMILES
1,2650 nM,"FC(F)(F)Oc1ccc2[nH]c(-c3ccc(OCCN4CCN(Cc5ccccc5)CC4)cn3)nc2c1 [US10562890, Compound Al-14-95]"
2,2160 nM,"COc1cc(OCCN2CCN(Cc3ccccc3)CC2)cnc1-c1nc2cc(OC(F)(F)F)ccc2[nH]1 [US10562890, Compound Al-14-100]"
